We go through four compounds from patent US20230042936A1, “PYRIDO[2,3-d]PYRIMIDIN-7(8H)-ONES AS CDK INHIBITORS” (PROSENESTAR LLC, priority 2020, published 2023).

For orientation: solubility (thermodynamic) means the concentration in solution at equilibrium with solid. Broadly, the GI50 is the concentration giving 50% growth inhibition.

Series [1] is described as follows: Toxicologic evaluation in vivo. Particulars: 50 or 100 mg/kg intraperitoneally twice a week for two weeks; for lung toxicity (hemorrhage in the lungs), mice affected: FIG. 11; for mouse weight: vs DMSO; for mouse weight / blood counts (white blood cells, lymphocytes): FIG. 10.
Series [2] in a line: Summary of solubility, metabolic stability and permeability.
In the next series the test system is phospho RB1 Ser807/811. Description: In vivo target engagement (phospho-RB staining of tissues). Also on record: species or system mice. Particulars: FIG. 7. The source says:
FIG. 7 depicts the effect of PS004, PS006 and PS009 on the phosphorylation of the retinoblastoma protein in different tissues using antibodies against phospho RB1 Ser807/811. Micrographs are representative from three different mice per treatment.
For histological analysis, mice tissues and human xenografts were fixed in 10%-buffered formalin (Sigma) and embedded in paraffin wax. Sections of 3- or 5-μm thickness were stained with haematoxylin and eosin. Additional immunohistochemical examination was performed using a specific antibody against phospho-Rb (Ser807/811; Cell Signaling) or Ki67 (DAKO).
For in vivo evaluation, the target engagement for the subject compounds in vivo was tested first.

Series [3] is described as follows: Metabolic stability in microsomes. Format: in vitro ADME. Particulars: mouse, 60-90 min test; for microsomal CLint: read-out: Metabolic stability, Mouse microsomes: Clearance; for half-life: read-out: Metabolic stability, Mouse microsomes: t1/2.
The next series deals with Caco-2 cells. Description: Permeability Caco-2 cells. Format: in vitro ADME. Background: Passage across Caco-2 layers is used to estimate intestinal permeability.
Series [4] can be described thus: Thermodynamic solubility (pH 7.4). Format: physicochemical. As to conditions: pH 7.4, aqueous buffer, thermodynamic from solid.
Series [5] has as its system SW1783 glioblastoma cell line (pRB mutant). Description: Proliferation assay: determination of GI50. Format: cell-based. Particulars: Homo sapiens, Table 4, n = 4, read-out: Growth inhibition GI50, Glioblastoma pRB Mutant SW1783. On the procedure: (§1) The following human tumor cell lines, all Retinoblastoma (Rb)-proficient, were used in this study: MDA-MB231 (breast cancer), MDA-MB453 (breast cancer), U87MG (glioblastoma) and H460 (lung cancer). MDA-MB468 (breast cancer) and SW1783 (glioblastoma) Rb-deficient cells were also included in the study, as well as the MCF10A non-transformed mammary epithelial cell line. Tumor cell lines were maintained in DMEM or RPMI-1640 medium, depending on the cell line, supplemented with 10% FBS. MCF10A cells were grown in complete mammary epithelial growth medium (MEGM, Lonza). Cell lines were authenticated by short tandem repeat (STR) loci profiling with the GenePrint® 10 System (Promega).
(§2) All human cancer cell lines (Table 2) were obtained from the American Type Culture Collection, and were maintained in DMEM (Hyclone) or RPMI-1640 medium (Sigma) supplemented with 10% fetal bovine serum (Sigma). Non-transformed MCF10 cell line was maintained in MEGM Mammary Epithelial Cell Growth Medium (Lonza). Immortalized mouse embryonic fibroblasts (MEFs) were maintained in DMEM with 10% fetal bovine serum.
(§3) 48 h later cells were fixed with PFA 4% for 15 minutes, stained with 10 μg/ml Hoechst 33342 (Molecular Probes, Thermo Fisher) for 30 minutes and washed twice with PBS. Cells were imaged in a high content screening system (Opera Phoenix™, Perkin Elmer) using a 20× dry objective (30 fields/well). Cell counts were determined by the Opera software (Perkin Elmer) and data were further processed with SPSS software. GI50 was calculated by estimating the absolute IC50 using dose-response inhibition tool in Prism6 (Graphpad Software Inc.).

Series [6] has as its system MDA-MB-468 breast carcinoma cell line (pRB mutant). In words: Proliferation assay: determination of GI50. As to conditions: Homo sapiens, Table 4, n = 2, read-out: Growth inhibition GI50, Breast cancer pRB Mutant MDA-MB-468. In kind it is cell-based. As to the method:
as §1, §2, §3

In the next series the test system is Cdk2/4/6_KO MEFs. Description: Cell growth in Cdk-deficient MEFs. In kind it is cell-based, mouse. Particulars: relative cell count day 6 versus day 3; FIG. 4. On the procedure:
(§4) Cdk-deficient MEFs were plated in 10-cm dish in triplicate (100,000/well) and treated with the selected compounds at the indicated concentration, based on GI50 previously determined in the MDA-MB-231 cell line. Cells were counted in an optical microscope 3 and 6 days after treatment to estimate the relative cell growth in each condition.
(§5) To further investigate the relative functional dependence of the subject compounds on CDK2 versus CDK4 or CDK6, the specific effects of PS004, PS006 and PS009 were tested on CDK-deficient mouse embryonic fibroblasts (MEFs) obtained from Cdk2 knock out, Cdk4; Cdk6-double knock out and Cdk2; Cdk4; Cdk6-triple knock out mouse models.

In the next series the test system is Cdk4/6_KO MEFs. In words: Cell growth in Cdk-deficient MEFs. Format: cell-based, mouse. Particulars: relative cell count day 6 versus day 3; FIG. 4. On the procedure: as §4, §5
The nature of series [7]: Metabolic stability in hepatocytes. In kind it is in vitro ADME. Particulars: human, 60-90 min test; for hepatocyte CLint: read-out: Metabolic stability, Human hepatocytes: Clearance; for half-life: read-out: Metabolic stability, Human hepatocytes: t1/2.
Series [8] relates to pRB-wild-type and pRB-deficient breast cancer cells (MDA-MB-231, MDA-MB-468). In words: GI50 compared in pRB-wild-type and pRB-deficient cells. In kind it is cell-based, human. As to conditions: comparison of GI50, Table 4. On the procedure:
[…]. Cell counts were determined by the Opera software (Perkin Elmer) and data were further processed with SPSS software. GI50 was calculated by estimating the absolute IC50 using dose-response inhibition tool in Prism6 (Graphpad Software Inc.).
CDK4/6 kinases drive cell cycle progression by phosphorylating the retinoblastoma protein (pRB), thus, releasing its repressive activity on transcription. Accordingly, CDK4/6 specific inhibitors are inefficient in pRB-deficient cells, as cell cycle transcription is induced with independence of CDK4/6 activity. The subject compounds were therefore evaluated to what extent depend on the presence of a functional pRB. Two pairs of human cancer cell lines representing pRB-wild-type and pRB-deficient breast cancer and glioblastoma were tested. […].

Series [9] deals with pRB phosphorylation and cell cycle markers in MDA-MB-231 and MDA-MB-468 cells. In words: Immunoblotting of cell cycle markers. Format: cell-based, human. Particulars: GI50 dose, 48 hours; FIG. 6. As to the method:
MDA-MB-231 and MDA-MB-468 cells were treated with the indicated compounds using the G150 corresponding to the MDA-MB-231 cell line, and 48 hours later lysed in Laemmli buffer (60 mM Tris-Cl pH 6.8, 10% Glycerol, 2% SDS). Protein concentration was determined using BCA method (Pierce).
In general terms: A western blot detects proteins with antibodies after separation by electrophoresis.

Series [10] relates to luminal-like (ZR75-1, T47D, MCF7) and non-luminal (HCC1143, MDA-MB-231, BT549, MDA-MB-468) breast cancer cell lines. Description: Relative cell growth in a panel of breast cancer cell lines (6 days). As to conditions: 6 days at GI50 dose (determined in MDA-MB-231); FIG. 5. In kind it is cell-based, human. As to the method: Data are mean±s.e.m. (3 technical replicates).
Relative cell proliferation was calculated by counting cell number at day 6 in treated cells versus cells treated with vehicle (DMSO).

“Also recorded” adds a separate entry of the source.

For `O=c1ccc2cnc(Nc3ccc(N4CCC(CCCO)CC4)cc3)nc2n1C1CC2CCC1C2` (centres unmarked) [PD-0183812, reference compound], in [1], the “histopathology of the bone marrow” value is on record as “hypoplasia/reactive bone marrow”; the “histopathology of the intestine” value is “aberrant mitotic figures”; the “histopathology of the spleen” value is recorded as “active extramedullar hematopoiesis”; the “lung toxicity (hemorrhage in the lungs), mice affected” value (“lung toxicity” below) is 6 out of 6. Also, the mouse weight result in series [1] is recorded as “induced significant weight loss”.
Regarding `CC(O)CCC1CCN(c2ccc(Nc3ncc4ccc(=O)n([C@@H]5CC6CCC5C6)c4n3)cc2)CC1` (stereo partly drawn) [PS004, 8-((2R)-bicyclo[2.2.1]heptan-2-yl)-2-((4-(4-(3-hydroxybutyl)piperidin-1-yl)phenyl)amino)pyrido[2,3-d]pyrimidin-7(8H)-one], in [2], the “Summary: permeability” value is “Low”, the “Summary: solubility” value is reported as “Insoluble,” and the “Summary: stability” value is “Stable”. Also, in the series with phospho RB1 Ser807/811, the “phospho-RB staining in bone marrow, intestine and spleen” value is recorded as “evident RB target inhibition”. In series [3], the microsomal CLint was 54.5 µL/min/mg and the half-life is 25.4 min. Moreover, in series [1], the “histopathology of the bone marrow” value is reported as “hypoplasia/reactive bone marrow”; the “histopathology of the intestine” value is on record as “aberrant mitotic figures”; the “histopathology of the spleen” value is “active extramedullar hematopoiesis”; the “blood counts (white blood cells, lymphocytes)” value is on record as “reduced lymphocyte counts”. Besides, in series [1], the “lung toxicity” value is listed as 4 out of 6. In addition, the “Permeability Caco-2 cells: Permeability, grade in words” value in the series on Caco-2 cells is “(low)”. Moreover, the solubility (thermodynamic) in [4] is below 2 µM. Moreover, the GI50 in series [5] came out at 11.5 µM. Also, the 50% growth inhibitory concentration (GI50) in series [6] is 3 µM. Besides, the “cell proliferation of Cdk2; Cdk4; Cdk6-triple knock out MEFs” value (“cell proliferation of Cdk2; Cdk4” for short) in the series with Cdk2/4/6_KO MEFs is “efficient in preventing cell proliferation”. In addition, the “cell proliferation of Cdk4; Cdk6-double knock out MEFs” value (“cell proliferation of Cdk4” for short) in the series with Cdk4/6_KO MEFs is listed as “efficient in preventing cell proliferation”. Further, in series [7], the hepatocyte CLint is below 6.4 µL/min/1e6 cells and the half-life was above 217 min.
In the case of `CC(O)COC1CCN(c2ccc(Nc3ncc4ccc(=O)n([C@@H]5CC6CCC5C6)c4n3)cc2)CC1` (stereo partly drawn) [PS006, 8-((2R)-bicyclo[2.2.1]heptan-2-yl)-2-((4-(4-(2-hydroxypropoxy)piperidin-1-yl)phenyl)amino)pyrido[2,3-d]pyrimidin-7(8H)-one], in series [2], the “Summary: efflux” value is “permeable/No”, the “Summary: permeability” value is on record as “High”, the “Summary: solubility” value is on record as “insoluble; also recorded: Insoluble,” and the “Summary: stability” value is recorded as “highly unstable”. Moreover, in series [3], the microsomal CLint amounted to 185 µL/min/mg and the half-life came to 7.5 min. Besides, in [1], the “histopathology of the spleen” value is “active extramedullar hematopoiesis” and the “lung toxicity” value was 1 out of 6. Besides, in the series with Caco-2 cells, the “Permeability Caco-2 cells: Efflux, grade in words” value was “(poor)” and the “Permeability Caco-2 cells: Permeability, grade in words” value is recorded as “(high)”. The same compound came in with a solubility (thermodynamic) in [4] below 2 µM. The GI50 in series [5] turned out to be 2.2 µM. Also, the GI50 in [6] came to 2.5 µM. In the series on Cdk2/4/6_KO MEFs, the “cell proliferation of Cdk2; Cdk4” value is “efficient in preventing cell proliferation”. In the series on Cdk4/6_KO MEFs, the “cell proliferation of Cdk4” value is “efficient in preventing cell proliferation”. Further, in [7], the hepatocyte CLint came to 49 µL/min/1e6 cells and the half-life was 28.3 min. In [8], the “efficiency in pRB-null versus pRB-wild-type breast cancer cells” value is reported as “equally efficient”.
As to `CC(=O)c1c(C)c2cnc(Nc3ccc(N4CCC(CCCO)CC4)cc3)nc2n(C2CCCC2)c1=O` [PS009, 6-acetyl-8-cyclopentyl-2-((4-(4-(3-hydroxypropyl)piperidin-1-yl)phenyl)amino)-5-methylpyrido[2,3-d]pyrimidin-7(8H)-one], in series [2], the “Summary: permeability” value is reported as “Low” and the “Summary: solubility” value is on record as “insoluble; also recorded: Insoluble,”. For the same compound, the “phospho-RB staining in bone marrow, intestine and spleen” value with phospho RB1 Ser807/811 is “evident RB target inhibition”. Besides, in series [3], the microsomal CLint is 46.9 µL/min/mg and the half-life is 29.5 min. In addition, in series [1], the “blood counts (white blood cells, lymphocytes)” value was “no defects in blood counts”; the “lung toxicity” value was 1 out of 6; the mouse weight entry was “induced weight loss”. The “Permeability Caco-2 cells: Permeability, grade in words” value with Caco-2 cells is on record as “(low)”. In series [9], the “levels of cell cycle markers” value is “reduced levels of most cell cycle markers” and the pRB phosphorylation entry is given as “strong inhibition”. For the same compound, the solubility (thermodynamic) in series [4] is below 2 µM. The 50% growth inhibitory concentration (GI50) in [5] amounted to 8 µM. Besides, the GI50 in series [6] came to 3.9 µM. Also, the “cell proliferation of Cdk2; Cdk4” value in the series on Cdk2/4/6_KO MEFs is “efficient in preventing cell proliferation”. Besides, the “cell proliferation of Cdk4” value in the series on Cdk4/6_KO MEFs is “efficient in preventing cell proliferation”. Moreover, the “relative cell growth, luminal-like and non-luminal breast cancer cell lines” value in [10] was “efficient in both pRB-wild-type and mutant cell lines; also recorded: efficiently inhibit both luminal and non-luminal breast cancer cells; also recorded: able to inhibit proliferation in non-luminal, pRB-mutant breast cancer cells lines”. Further, in series [7], the hepatocyte CLint amounted to 41.7 µL/min/1e6 cells and the half-life is 33.3 min. In addition, the “efficiency in pRB-null versus pRB-wild-type breast cancer cells” value in series [8] is listed as “equally efficient”.
